Test results from ChEMBL document CHEMBL4342426, “Structure-activity relationship of 4-azaindole-2-piperidine derivatives as agents against Trypanosoma cruzi” (Bioorg Med Chem Lett, 2020).

Experiments:
[1] = tested on: Trypanosoma brucei rhodesiense; assay: microbe, parasite or virus in culture; conditions: STIB900, 72 h
Description: Antiprotozoal activity against Trypanosoma brucei rhodesiense STIB900 trypomastigotes incubated for 72 hrs by resazurin dye based fluorimetric analysis

cells = conditions: Homo sapiens, MRC-5 SV2, 72 h
Description: (§1) Cytotoxicity against human MRC5 SV2 cells assessed as reduction in cell viability incubated for 3 days by fluorimetry

Leishmania infantum = assay: microbe, parasite or virus in culture; conditions: for IC50: MHOM/MA(BE)/67/ITMAP263, 120 h; for IC90: MHOM/MA(BE)/67/ITMAP263, in Mus musculus, 120 h
Description: Antileishmanial activity against amastigote stage of Leishmania infantum MHOM/MA(BE)/67/ITMAP263 infected in mouse peritoneal macrophage assessed as parasite growth inhibition incubated for 5 days by Giemsa staining based assay

in vitro [2] = conditions: mouse, peritoneal macrophages
Description: (§2) Cytotoxicity against mouse peritoneal Macrophage cells assessed as reduction in cell viability incubated for 3 days by fluorimetry

Trypanosoma brucei = assay: microbe, parasite or virus in culture; conditions: Squib 427, 72 h
Description: Antitrypanosomal activity against Trypanosoma brucei Squib 427 assessed as reduction in parasite growth incubated for 72 hrs by resazurin dye based fluorimetric analysis

Trypanosoma cruzi = assay: microbe, parasite or virus in culture; conditions: Tulahuen CL2, MRC-5 SV2, 168 h
Description: Antitrypanosomal activity against Trypanosoma cruzi Tulahuen CL2 amastigotes infected in human MRC5 SV2 cells incubated for 7 days by chlorophenol red beta-D-galactopyranoside substrate based spectrophotometric assay

Macrophage = assay: cells; conditions: Mus musculus, 72 h
Description: as §2

in vitro [3] = conditions: human, MRC5 SV2 cells
Description: as §1

in vitro [4] = conditions: mouse, liver microsomes
Description: Metabolic stability in mouse liver microsomes assessed as intrinsic clearance at 0.5 uM incubated for 30 mins by LC-MS/MS analysis

physchem = conditions: buffer, pH 7.4
Description: Lipophilicity, logD of compound at pH 7.4 by HPLC analysis

in vitro [5] = conditions: human, liver microsomes
Description: Metabolic stability in human liver microsomes assessed as intrinsic clearance at 0.5 uM incubated for 30 mins by LC-MS/MS analysis

| IC50 [1] | IC90 [1] | IC50 (Leishmania infantum) | IC90 (Leishmania infantum) | IC90 at 72 h (in vitro [2]) | IC50 (Trypanosoma brucei) | IC90 (Trypanosoma brucei) | IC90 at 72 h (in vitro [3]) | CLint scaled at 0.5 h, 0.5 µM (in vitro [4]) | microsomal CLint at 0.5 h, 0.5 µM (in vitro [4]) | logD (physchem) | CLint scaled at 0.5 h, 0.5 µM (in vitro [5]) | microsomal CLint at 0.5 h, 0.5 µM (in vitro [5]) | SMILES | IC50 (cells) | IC50 (Trypanosoma cruzi) | IC90 (Trypanosoma cruzi) | IC50 (Macrophage) | CC50 at 72 h (in vitro [3]) |
| --- | --- | --- | --- | --- | --- | --- | --- | --- | --- | --- | --- | --- | --- | --- | --- | --- | --- | --- |
| 64 µM | 64 µM | 64 µM | 64 µM | 64 µM | 64 µM | 64 µM | 64 µM |  |  |  |  |  | CC(C)(C)OC(=O)N1CCCC(O)(c2cc3ncccc3[nH]2)C1 (configuration not stated) | 64 µM | 64 µM | 64 µM | 64 µM |  |
| 64 µM | 64 µM | 64 µM | 64 µM | 64 µM | 64 µM | 64 µM | 64 µM |  |  |  |  |  | CC(=O)N1C=C(c2cc3ncccc3[nH]2)CCC1 | 64 µM | 64 µM | 64 µM | 64 µM |  |
| 64 µM | 64 µM | 64 µM | 64 µM | 64 µM | 64 µM | 64 µM | 64 µM | 4900 mL/min/kg | 980 µL/min/mg | 2.46 | 40.7 mL/min/kg | 24.1 µL/min/mg | CC(C)c1cc(C(=O)N2CCC(O)(c3cc4ncccc4[nH]3)CC2)on1 | 64 µM | 45.9 µM | 64 µM | 64 µM |  |
| 64 µM | 64 µM | 64 µM | 64 µM | 64 µM | 64 µM | 64 µM | 64 µM |  |  |  |  |  | CCCC(=O)N1CCCC(O)(c2cc3ncccc3[nH]2)C1 (configuration not stated) | 64 µM | 64 µM | 64 µM | 64 µM |  |
| 64 µM | 64 µM | 64 µM | 64 µM | 64 µM | 64 µM | 64 µM | 64 µM | 1920 mL/min/kg | 434 µL/min/mg | 2.13 | 143 mL/min/kg | 94.4 µL/min/mg | OC1(c2cc3ncccc3[nH]2)CCN(Cc2ccccc2)CC1 | 64 µM | 64 µM | 64 µM | 64 µM |  |

Continued, compound first:

| SMILES | IC50 [1] | IC90 [1] | IC50 (Leishmania infantum) | IC90 (Leishmania infantum) | IC90 at 72 h (in vitro [2]) | IC50 (Trypanosoma brucei) | IC90 (Trypanosoma brucei) | IC90 at 72 h (in vitro [3]) | CLint scaled at 0.5 h, 0.5 µM (in vitro [4]) | microsomal CLint at 0.5 h, 0.5 µM (in vitro [4]) | logD (physchem) | CLint scaled at 0.5 h, 0.5 µM (in vitro [5]) | microsomal CLint at 0.5 h, 0.5 µM (in vitro [5]) | IC50 (cells) | IC50 (Trypanosoma cruzi) | IC90 (Trypanosoma cruzi) | IC50 (Macrophage) | CC50 at 72 h (in vitro [3]) |
| --- | --- | --- | --- | --- | --- | --- | --- | --- | --- | --- | --- | --- | --- | --- | --- | --- | --- | --- |
| O=C(NCCc1nc2ccccc2[nH]1)c1ccccc1 | 64 µM | 64 µM | 64 µM | 64 µM | 64 µM | 64 µM | 64 µM | 64 µM |  |  |  |  |  | 64 µM | 64 µM | 64 µM | 64 µM |  |
| O=S(=O)(c1ccccc1)N1CC=C(c2cc3ncccc3[nH]2)CC1 | 64 µM | 64 µM | 45.6 µM | 60.5 µM | 59.7 µM | 64 µM | 64 µM | 64 µM |  |  |  |  |  | 64 µM | 64 µM | 64 µM | 45.3 µM |  |
| O=C(c1cncnc1)N1CCCC(c2cc3ncccc3[nH]2)C1 (configuration not stated) | 64 µM | 64 µM | 64 µM | 64 µM | 64 µM | 64 µM | 64 µM | 64 µM |  |  | 1.24 | < 31.3 mL/min/kg | < 23 µL/min/mg | 64 µM | 64 µM | 64 µM | 64 µM |  |
| O=C(Cn1ccnc1[N+](=O)[O-])NCc1ccccc1 [BENZNIDAZOLE] |  |  |  |  |  |  |  |  |  |  |  |  |  |  | 2 to 5 µM |  |  |  |
| CC(=O)O[C@H]1C(=O)[C@@]2(C)[C@H]([C@H](OC(=O)c3ccccc3)[C@]3(O)C[C@H](OC(=O)[C@H](O)[C@@H](NC(=O)c4ccccc4)c4ccccc4)C(C)=C1C3(C)C)[C@]1(OC(C)=O)CO[C@@H]1C[C@@H]2O [PACLITAXEL] |  |  |  |  |  |  |  |  |  |  |  |  |  |  |  |  |  | < 0.01 µM |
| CC[C@]1(O)C[C@@H]2CN(CCc3c([nH]c4ccccc34)[C@@](C(=O)OC)(c3cc4c(cc3OC)N(C)[C@H]3[C@@](O)(C(=O)OC)[C@H](OC(C)=O)[C@]5(CC)C=CCN6CC[C@]43[C@@H]65)C2)C1 [VINBLASTINE] |  |  |  |  |  |  |  |  |  |  |  |  |  |  |  |  |  | < 0.01 µM |
